Each block holds one substance with its values, some of them ahead of it.
Target: T1, MyD88^TIR (Homo sapiens, UniProt Q99836)
T1 construct: MyD88 (residues 148–296); 6xHis; made in house; host or cells: E. coli BL21 (DE3)
Assay: T‐Surf phage library (P8 and P3) selection against MyD88^TIR, four rounds, NGS read counts
Format: binding
Details: for Population: 4th round of selection against MyD88 TIR, share of NGS reads; for P8_MyD88 Rank (after) / P8_MyD88 Rank (before): P8 library; for P3_MyD88 Rank (after) / P3_MyD88 Rank (before): P3 library
Description: T‐Surf libraries were screened against the immobilized TIR domains of two major human TLR adaptor proteins, MAL^TIR and MyD88^TIR, allowing cross‐species selection of TIR‐binding motifs with 190 946 TIR‐derived peptides in a single binding assay (Scheme 1). Enriched phage pools from the fourth round of selection were analyzed using NGS after barcoding the peptide‐coding regions of the phage pools.
Phage display screening was performed by coating two wells of a 96‐well plate (Maxisorp, Thermo Fisher Scientific) with 100 µL of 5 µg mL^−1 TIR domains overnight; then, the coated wells were blocked with 200 µL of blocking buffer (0.2% BSA in PBS) and set aside for 1 h at 4 °C with gentle shaking. Next, 100 µL of the phage library was added to the wells and incubated for 1 h at room temperature (RT; 20 – 22 °C) with gentle shaking. The plate was washed four times with PBS containing 0.5% Tween‐20; the bound phages were eluted by adding 100 µL of 100 mM HCl to each well. The elute was neutralized with 10 µL of 1.0 M Tris‐HCl (pH 11.0). E. coli TG1 cells were grown to the log phase (A600 = ≈0.6), and 1 mL of the culture was incubated with 100 µL of the eluted phages for 30 min at 37 °C, with shaking at 200 rpm. Next, 1 µL of M13KO7 helper phages was added, followed by incubation for 45 min at 37 °C, with shaking. Subsequently, the cells were transferred to 25 mL of 2× yeast extract tryptone/carbenicillin/kanamycin medium and incubated overnight at 37 °C with shaking at 200 rpm. The amplified phages were precipitated with 20% PEG‐8000/2.5 M NaCl to be used for the next round of selection.
The naïve T‐Surf libraries in P8 and P3 and the enriched phage pools after four rounds were barcoded for NGS as previously described.^[ [59] ^] Briefly, 5 µL of the phage pool was used as a template for 20 cycles of a 50 µL PCR reaction using […] each of forward and reverse barcoded primers and PrimeSTAR Max DNA Polymerase. The PCR products were purified using Expin Gel SV (GeneAll). The NGS samples were quantified using qPCR, following the qPCR Quantification Protocol Guide (KAPA Library Quantification kits for Illumina Sequencing Platform), and qualified using the TapeStation High Sensitivity D1000 ScreenTape (Agilent Technologies). The indexed libraries were further sequenced by Macrogen (Seoul, Republic of Korea) using the NovaSeq platform (Illumina) with 100 bp paired‐end reads. The reads were demultiplexed by barcodes and filtered for an average Phred quality score of at least 30, followed by trimming the flanking consensus sequences using Cutadapt (version 2.3). Peptide sequence populations were analyzed according to the read counts.

[1] = P3_MyD88 pool: P3 T-Surf phage library
[2] = selection against MyD88 TIR, rank by count after grouping
[3] = selection against MyD88 TIR, rank by count before grouping
[4] = P3_MyD88: rank by count after grouping
[5] = P3_MyD88: rank by count before grouping
[6] = 4R selection against MyD88, rank after grouping
[7] = 4R selection against MyD88, rank before grouping
[8] = P8_MyD88: rank by NGS read count after grouping
[9] = P8_MyD88: rank by NGS read count before grouping
[10] = selection against MyD88, rank after grouping
[11] = selection against MyD88, rank before grouping
[12] = P8_MyD88: rank by count after grouping
[13] = P8_MyD88: rank by count before grouping
[14] = P8_MyD88 pool: P8 T-Surf phage library
[15] = selection against MyD88, rank by count after grouping
[16] = selection against MyD88, rank by count before grouping

T1 sequence (Q99836 148-296): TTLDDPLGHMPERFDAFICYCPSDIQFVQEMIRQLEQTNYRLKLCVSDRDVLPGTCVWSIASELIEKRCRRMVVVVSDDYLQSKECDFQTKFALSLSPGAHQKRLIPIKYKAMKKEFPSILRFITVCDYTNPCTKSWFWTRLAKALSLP

- Population [1]: 0.00378%
Substance: NQWRNALTAAANLV

- P8_MyD88 Rank (after) [2]: 271
- P8_MyD88 Rank (before) [3]: 2825
Substance: DPQDLDWVYERLVSLI

- Rank (after) [4]: 186
- Rank (before) [5]: 1250
Substance: NELVHVWSSKANSLVGQ

- P8_MyD88 Rank (after) [6]: 645
- P8_MyD88 Rank (before) [7]: 3104
Substance: DSLFWDRLLPNLEGPAG

- Rank (after) [4]: 470
- Rank (before) [5]: 3790
Substance: KNLLNELVSKTIRTFM

- Rank (after) [8]: 986
- Rank (before) [9]: 2713
Substance: DPQDLVWFYERLVSIV

- P3_MyD88 Rank (after) [2]: 258
- P3_MyD88 Rank (before) [3]: 1170
Substance: SENYATSPWALDELVRIVEA

- P3_MyD88 Rank (after) [6]: 590
- P3_MyD88 Rank (before) [7]: 1658
Substance: YTALTNRAFIPFVIM

- P8_MyD88 Rank (after) [2]: 251
- P8_MyD88 Rank (before) [3]: 2727
Substance: DPQDLALFYERLVSLF

- P8_MyD88 Rank (after) [10]: 556
- P8_MyD88 Rank (before) [11]: 2609
Substance: DPLVMVWLYVRPVSLF

- Population [1]: 0.0032%
Substance: SSFREGLWRLLELRKK

- Rank (after) [12]: 165
- Rank (before) [13]: 187
- Population [14]: 0.00694%
Substance: HFETTEGNFYKFFLFF

- Rank (after) [8]: 959
- Rank (before) [9]: 2651
Substance: DPQVPEWFYNRLFCQL

- P8_MyD88 Rank (after) [6]: 584
- P8_MyD88 Rank (before) [7]: 2674
Substance: DPQGHAWTYERHLSVF

- P3_MyD88 Rank (after) [15]: 743
- P3_MyD88 Rank (before) [16]: 3387
Substance: NELIDVGHSYSMHRGG

- Rank (after) [12]: 113
- Rank (before) [13]: 121
- Population [14]: 0.0181%
Substance: QDLEQFYERLISRILQ

- P8_MyD88 Rank (after) [10]: 546
- P8_MyD88 Rank (before) [11]: 2018
Substance: YLLLNVFQIIFARGPE

- Rank (after) [12]: 154
- Rank (before) [13]: 169
- Population [14]: 0.00848%
Substance: DIVAYVMQKLMKHQVF

- Rank (after) [12]: 97
- Rank (before) [13]: 101
- Population [14]: 0.0231%
Substance: SMTPLSDFWKELALVL

- Rank (after) [12]: 177
- Rank (before) [13]: 202
Substance: DYASSWWALEEMAKIM

- Rank (after) [12]: 477
- Rank (before) [13]: 1960
Substance: YLEWPLDENQQLIFWF

- P8_MyD88 Rank (after) [15]: 703
- P8_MyD88 Rank (before) [16]: 2275
Substance: GWAWDYLLPNLEGPAG

- Rank (after) [8]: 977
- Rank (before) [9]: 2720
Substance: DPQDLVWFYKRLFSQM

- Rank (after) [8]: 912
- Rank (before) [9]: 3824
Substance: TSTWALDELLRILY

- Rank (after) [4]: 398
- Rank (before) [5]: 3443
Substance: NELVHEISKKMKIFATI

- Rank (after) [8]: 876
- Rank (before) [9]: 1349
Substance: CARDELLQILHARELF

- P3_MyD88 Rank (after) [10]: 491
- P3_MyD88 Rank (before) [11]: 1493
Substance: YAFTGHLPRDLVLRGG

- Population [1]: 0.00466%
Substance: SSFREGL*RLLELSKK

- P8_MyD88 Rank (after) [15]: 725
- P8_MyD88 Rank (before) [16]: 1345
Substance: CALCELLQILHARGLF

- P8_MyD88 Rank (after) [15]: 706
- P8_MyD88 Rank (before) [16]: 1619
Substance: WDFASNMEQFWIVCI

- Rank (after) [12]: 138
- Rank (before) [13]: 149
- Population [14]: 0.0108%
Substance: YASSIWALNELIRILE

- Rank (after) [4]: 119
- Rank (before) [5]: 1665
Substance: YTALTNSGFHTFLDNY

- Rank (after) [12]: 459
- Rank (before) [13]: 2844
Substance: DPQDLELFYEQLVRPF

- P3_MyD88 Rank (after) [15]: 736
- P3_MyD88 Rank (before) [16]: 2071
Substance: DSQSSLLKGEADLVGQ

- P8_MyD88 Rank (after) [2]: 229
- P8_MyD88 Rank (before) [3]: 476
Substance: ELDFSHFWLFDGDAGEEP

- Rank (after) [4]: 157
- Rank (before) [5]: 1891
Substance: AVDIETEKIQTPLKNA

- P8_MyD88 Rank (after) [15]: 760
- P8_MyD88 Rank (before) [16]: 2560
Substance: DGGWDYLLPNVEGPAC

- Population [1]: 0.00408%
Substance: LKVESWRQALEKADKL

- Rank (after) [4]: 142
- Rank (before) [5]: 572
Substance: YLKWGYPWFWDRLP

- P8_MyD88 Rank (after) [6]: 644
- P8_MyD88 Rank (before) [7]: 3332
Substance: LGYQCIDWEYFVDIED

- P8_MyD88 Rank (after) [10]: 509
- P8_MyD88 Rank (before) [11]: 3654
Substance: MFGGATLHDVLELISM

Reference: PMC11714206, “Massively Parallel Screening of Toll/Interleukin‐1 Receptor (TIR)‐Derived Peptides Reveals Multiple Toll‐Like Receptors (TLRs)‐Targeting Immunomodulatory Peptides” (Advanced Science, 2024)
